Experimental data reported in patent publication US9956204B2, “Composition for exterminating scuticociliates in fish including mebendazole” (NATIONAL INSTITUTE OF FISHERIES SCIENCE, priority 2016, dated 2018).

What was measured:
[1] = system: scuticociliates; assay: Scuticociliates extermination effect of candidate substances in seawater medium; type: cell-based
Method: For this, scuticociliates were cultured in CHSE-214 cell line (using MEM medium), and then scuticociliates were collected and centrifuged with sterilized seawater or artificial seawater (20‰) to replace them with a seawater medium. Each of 100 μl (1×10^5) was dispensed into each well of 96 wells, followed by further culture for 30 minutes. The candidate substances diluted in seawater to have a volume of 100 μl per each concentration were mixed with scuticociliates to have the final volume of 200 μl and cultured for 4 hour.

[2] = system: scuticociliates; assay: Scuticociliates extermination effect of candidate substances in MEM medium; type: cell-based
Method: CHSE-214 cell line into which scuticociliates were inoculated was cultured in advance. The CHSE-214 cell line was cultured in an incubator using an MEM medium at 22° C. Scuticociliates inoculated into the cell line proliferated for 3 days by which the number reaches to be capable of analyzing in vitro anti-scuticociliates effect. Scuticociliates that feed on the cell line and sufficiently grow were mixed with the candidate substance and the activity of scuticociliates was measured.
In order to analyze the antiparasitic activity of the above 19 types of candidate substances of scuticociliates extermination drugs, scuticociliates were cultured for 3 days, and 100 μl (1×10^5) was dispensed into each well of 96 wells. The candidate substances were diluted by each concentration and the final volume was dispensed into 100 μl. Thereafter, the two were mixed and finally made into 200 μl.

[3] = seawater medium, 4 hour, Dosage 500 ppm
[4] = seawater medium, 4 hour, Dosage 1000 ppm
[5] = seawater medium, 4 hour, Dosage 1500 ppm
[6] = seawater medium, 4 hour, Dosage 2000 ppm
[7] = seawater medium, 4 hour, Dosage 2500 ppm
[8] = seawater medium, 4 hour, Dosage 3000 ppm
[9] = seawater medium, 4 hour, Dosage 3500 ppm
[10] = seawater medium, 4 hour, Dosage 4000 ppm
[11] = seawater medium, 4 hour, Dosage 10 ppm
[12] = seawater medium, 4 hour, Dosage 50 ppm
[13] = seawater medium, 4 hour, Dosage 100 ppm
[14] = seawater medium, 4 hour, Dosage 200 ppm
[15] = seawater medium, 4 hour, Dosage 600 ppm
[16] = seawater medium, 4 hour, Dosage 700 ppm
[17] = seawater medium, 4 hour, Dosage 300 ppm
[18] = seawater medium, 4 hour, Dosage 400 ppm
[19] = seawater medium, 4 hour, Dosage 800 ppm
[20] = seawater medium, 4 hour, Dosage 900 ppm

Row | SMILES | Survival or Death of scuticociliates (activity and shape, microscope) [1, 3] | Survival or Death of scuticociliates (activity and shape, microscope) [1, 4] | Survival or Death of scuticociliates (activity and shape, microscope) [1, 5] | Survival or Death of scuticociliates (activity and shape, microscope) [1, 6] | Survival or Death of scuticociliates (activity and shape, microscope) [1, 7] | Survival or Death of scuticociliates (activity and shape, microscope) [1, 8] | Survival or Death of scuticociliates (activity and shape, microscope) [1, 9] | Survival or Death of scuticociliates (activity and shape, microscope) [1, 10] | Survival or Death of scuticociliates (activity and shape, microscope) ([2]; MEM medium, Dosage 500 ppm) | Survival or Death of scuticociliates (activity and shape, microscope) ([2]; MEM medium, Dosage 1000 ppm) | Survival or Death of scuticociliates (activity and shape, microscope) ([2]; MEM medium, Dosage 1500 ppm) | Survival or Death of scuticociliates (activity and shape, microscope) ([2]; MEM medium, Dosage 2000 ppm) | Survival or Death of scuticociliates (activity and shape, microscope) ([2]; MEM medium, Dosage 2500 ppm) | Survival or Death of scuticociliates (activity and shape, microscope) [1, 12] | Survival or Death of scuticociliates (activity and shape, microscope) [1, 13] | Survival or Death of scuticociliates (activity and shape, microscope) [1, 15] | Survival or Death of scuticociliates (activity and shape, microscope) [1, 16] | Survival or Death of scuticociliates (activity and shape, microscope) ([2]; MEM medium, Dosage 200 ppm) | Survival or Death of scuticociliates (activity and shape, microscope) ([2]; MEM medium, Dosage 600 ppm) | Survival or Death of scuticociliates (activity and shape, microscope) ([2]; MEM medium, Dosage 800 ppm) | further results
1 | C1CNCCN1 [Piperazine] | Survival | Survival | Survival | Survival | Survival | Survival | Survival | Survival | Survival | Survival | Survival | Survival | Survival | – | – | – | – | – | – | – | Survival or Death of scuticociliates (activity and shape, microscope) ([2]; MEM medium, Dosage 3000 ppm): Survival; Survival or Death of scuticociliates (activity and shape, microscope) ([2]; MEM medium, Dosage 3500 ppm): Survival; Survival or Death of scuticociliates (activity and shape, microscope) ([2]; MEM medium, Dosage 4000 ppm): Survival
2 | COP(=O)(OC)C(O)C(Cl)(Cl)Cl (stereo not drawn) [Trichlorfon] | Survival | – | – | – | – | – | – | – | Survival | Death | – | – | – | Survival | Survival | Death | Death | Survival | Δ | Death | Survival or Death of scuticociliates (activity and shape, microscope) [1, 11]: Survival; Survival or Death of scuticociliates (activity and shape, microscope) [1, 14]: Survival; Survival or Death of scuticociliates (activity and shape, microscope) ([2]; MEM medium, Dosage 700 ppm): Death; Survival or Death of scuticociliates (activity and shape, microscope) ([2]; MEM medium, Dosage 900 ppm): Death
3 | c1ccc([C@H]2CN3CCSC3=N2)cc1 [Levamisol] | Survival | Survival | Survival | Survival | Survival | Survival | Survival | Survival | Survival | Survival | Survival | Survival | Survival | – | – | – | – | – | – | – | Survival or Death of scuticociliates (activity and shape, microscope) ([2]; MEM medium, Dosage 3000 ppm): Survival; Survival or Death of scuticociliates (activity and shape, microscope) ([2]; MEM medium, Dosage 3500 ppm): Survival; Survival or Death of scuticociliates (activity and shape, microscope) ([2]; MEM medium, Dosage 4000 ppm): Survival
4 | COC(=O)Nc1nc2ccc([S+]([O-])c3ccccc3)cc2[nH]1 (stereo not drawn) [Oxfendazole] | Survival | Death | – | – | – | – | – | – | Survival | Death | – | – | – | Survival | Survival | Survival | Δ | Survival | Survival | Δ | Survival or Death of scuticociliates (activity and shape, microscope) [1, 11]: Survival; Survival or Death of scuticociliates (activity and shape, microscope) [1, 14]: Survival; Survival or Death of scuticociliates (activity and shape, microscope) [1, 17]: Survival; Survival or Death of scuticociliates (activity and shape, microscope) [1, 18]: Survival; Survival or Death of scuticociliates (activity and shape, microscope) [1, 19]: Δ; Survival or Death of scuticociliates (activity and shape, microscope) [1, 20]: Δ; Survival or Death of scuticociliates (activity and shape, microscope) ([2]; MEM medium, Dosage 10 ppm): Survival; Survival or Death of scuticociliates (activity and shape, microscope) ([2]; MEM medium, Dosage 50 ppm): Survival; Survival or Death of scuticociliates (activity and shape, microscope) ([2]; MEM medium, Dosage 100 ppm): Survival; Survival or Death of scuticociliates (activity and shape, microscope) ([2]; MEM medium, Dosage 300 ppm): Survival; Survival or Death of scuticociliates (activity and shape, microscope) ([2]; MEM medium, Dosage 400 ppm): Survival; Survival or Death of scuticociliates (activity and shape, microscope) ([2]; MEM medium, Dosage 700 ppm): Δ; Survival or Death of scuticociliates (activity and shape, microscope) ([2]; MEM medium, Dosage 900 ppm): Δ
5 | CO[C@H]1C[C@H](O[C@@H]2/C(C)=C/C[C@@H]3C[C@@H](C[C@]4(CC[C@H](C)[C@@H](C5CCCCC5)O4)O3)OC(=O)[C@@H]3C=C(C)/C(=N/O)[C@H]4OC/C(=C\C=C\[C@@H]2C)[C@]43O)O[C@@H](C)[C@@H]1O [Selamectin] | – | – | – | – | – | – | – | – | – | – | – | – | – | – | – | – | – | – | – | – | Survival or Death of scuticociliates (activity and shape, microscope) [1]: Survival and Δ and Death; Survival or Death of scuticociliates (activity and shape, microscope) [2]: Survival and Δ and Death
6 | c1ccc(C2CN3CCSC3=N2)cc1 (stereo not drawn) [Tetramisole] | Survival | Survival | Survival | Survival | Survival | Survival | Survival | Survival | Survival | Survival | Survival | Survival | Survival | – | – | – | – | – | – | – | Survival or Death of scuticociliates (activity and shape, microscope) ([2]; MEM medium, Dosage 3000 ppm): Survival; Survival or Death of scuticociliates (activity and shape, microscope) ([2]; MEM medium, Dosage 3500 ppm): Survival; Survival or Death of scuticociliates (activity and shape, microscope) ([2]; MEM medium, Dosage 4000 ppm): Survival
7 | COC(=O)Nc1nc2ccc(Sc3ccccc3)cc2[nH]1 [Fenbendazole] | Survival | Death | – | – | – | – | – | – | Survival | Death | – | – | – | Survival | Survival | Survival | Survival | Survival | Survival | Δ | Survival or Death of scuticociliates (activity and shape, microscope) [1, 11]: Survival; Survival or Death of scuticociliates (activity and shape, microscope) [1, 14]: Survival; Survival or Death of scuticociliates (activity and shape, microscope) [1, 17]: Survival; Survival or Death of scuticociliates (activity and shape, microscope) [1, 18]: Survival; Survival or Death of scuticociliates (activity and shape, microscope) [1, 19]: Δ; Survival or Death of scuticociliates (activity and shape, microscope) [1, 20]: Δ; Survival or Death of scuticociliates (activity and shape, microscope) ([2]; MEM medium, Dosage 10 ppm): Survival; Survival or Death of scuticociliates (activity and shape, microscope) ([2]; MEM medium, Dosage 50 ppm): Survival; Survival or Death of scuticociliates (activity and shape, microscope) ([2]; MEM medium, Dosage 100 ppm): Survival; Survival or Death of scuticociliates (activity and shape, microscope) ([2]; MEM medium, Dosage 300 ppm): Survival; Survival or Death of scuticociliates (activity and shape, microscope) ([2]; MEM medium, Dosage 400 ppm): Survival; Survival or Death of scuticociliates (activity and shape, microscope) ([2]; MEM medium, Dosage 700 ppm): Survival; Survival or Death of scuticociliates (activity and shape, microscope) ([2]; MEM medium, Dosage 900 ppm): Δ
8 | O=C(OCc1ccccc1)c1ccccc1 [Benzyl benzonate] | Δ | – | – | – | – | – | – | – | Survival | Δ | – | – | – | Survival | Survival | Death | Death | Survival | Survival | Δ | Survival or Death of scuticociliates (activity and shape, microscope) [1, 19]: Death; Survival or Death of scuticociliates (activity and shape, microscope) ([2]; MEM medium, Dosage 10 ppm): Survival; Survival or Death of scuticociliates (activity and shape, microscope) ([2]; MEM medium, Dosage 50 ppm): Survival; Survival or Death of scuticociliates (activity and shape, microscope) ([2]; MEM medium, Dosage 100 ppm): Survival
